The values that follow come from patent US12692221B2 (priority 2024, dated 2026).

Data set [1] has as its target T1, 5-HT2A (Homo sapiens, UniProt P28223). Nature of the data set: Calcium flux agonist assay, 293T cells. Format: cell-based. On the set-up: expressed in transfected cells; host or cells: Human Embryonic Kidney (293T) cells, transient. As to conditions: for Emax: HEK-293T, calcium flux, 5-HT2A, normalized to maximum 5-HT response.
The target in data set [2] is T2, 5-HT2B (Homo sapiens, UniProt P41595). Put plainly: Calcium flux agonist assay, 293T cells. Format: cell-based. More on the design: expressed in transfected cells; host or cells: Human Embryonic Kidney (293T) cells, transient. As to conditions: for Emax: HEK-293T, 5-HT2B, normalized to maximum 5-HT response; for Emax / 5-HT2B receptor activation: calcium flux; for 5-HT2B receptor activation: in words.
T2 sequence (P41595 whole entry): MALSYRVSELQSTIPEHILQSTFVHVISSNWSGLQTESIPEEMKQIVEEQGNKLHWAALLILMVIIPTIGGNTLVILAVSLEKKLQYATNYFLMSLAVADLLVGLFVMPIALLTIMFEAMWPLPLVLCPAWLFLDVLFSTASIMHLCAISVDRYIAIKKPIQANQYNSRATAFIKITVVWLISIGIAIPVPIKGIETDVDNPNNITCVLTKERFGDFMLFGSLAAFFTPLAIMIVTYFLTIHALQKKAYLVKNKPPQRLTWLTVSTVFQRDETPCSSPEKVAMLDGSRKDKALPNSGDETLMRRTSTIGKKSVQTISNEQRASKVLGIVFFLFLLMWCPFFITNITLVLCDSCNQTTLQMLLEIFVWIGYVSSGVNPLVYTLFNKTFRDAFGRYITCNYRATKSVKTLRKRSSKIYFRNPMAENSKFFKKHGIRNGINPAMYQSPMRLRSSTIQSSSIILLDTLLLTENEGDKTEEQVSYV

Data set [3] has as its target T1, 5-HT2A. Put plainly: IP-One HTRF IP-1 accumulation functional assay, 5-HT2A-expressing HEK293. The class given is cell-based. On the set-up: host or cells: HEK293. How it is done: Methods (5-HT2A and 5-HT2C IP-One Functional Activity Assays): Intracellular accumulation of IP-1 was measured using an IP-One HTRF assay kit (Cat. #62IPAPEJ, Cisbio) at WuXi AppTec Co. Ltd. (Hong Kong) Discovery Biology Unit according to their standard protocols. Briefly, the reference compounds and screening compounds were 3.16-fold serially diluted in 100% DMSO for 10 points using Bravo. 70 nL of compounds were added to the assay plate using Echo555. Added 14 μL/7500 cells/well of 5-HT2A-expressing HEK293 or 5-HT2C-expressing HEK293 to the assay plate and incubate for 60 min at 37° C. Added 3 μL of IP-1 d2 Reagent working solution and 3 μL of IP-1 Tb Cryptate Antibody working solution to all wells. The plates were incubated for 1 hour at room temperature and read for fluorescence at 620 nm and 665 nm on an EnVision Multimode Plate Reader (PerkinElmer). The ratio of the acceptor and donor emission signals (665/620) were calculated for each individual well and substituted into the standard curve to obtain the log concentration of IP level. After converting to the antilog base IP-1, the average background control signal was subtracted from each well and values were normalized to the maximal response of 5-HT at 3 μM (100%). % MAX was calculated by taking the average normalized maximal response for each compound at the highest concentration tested. The data were analyzed using the four-parameter nonlinear regression curve-fitting function in GraphPad Prism 5 (GraphPad Software, San Diego, CA) to generate potency (EC50) values. The represented plots show normalized IP-1 values versus compound concentrations; the corresponding numerical data are parameter estimates for the concentration-response curve using the four-parameter nonlinear regression curve-fitting function in GraphPad Prism 10.

For data set [4], the target named is T2, 5-HT2B. Put plainly: IP-One HTRF IP-1 accumulation functional assay, 5-HT2B/HEK293. Format: cell-based. On the set-up: host or cells: HEK293. How it is done: Methods (5-HT2B IP-One Functional Activity Assays): Intracellular accumulation of IP-1 was measured using an IP-One HTRF) assay kit (Cat. #62IPAPEJ, Cisbio) at WuXi AppTec Co. Ltd. (Hong Kong) Discovery Biology Unit according to their standard protocols. Briefly, 5-HT2B/HEK293 were plated in a 384-well plate and incubated at 37° C. and 5% CO2 overnight. The reference compounds and screening compounds were 3.16-fold serially diluted in 100% DMSO for 10 points using Bravo. 70 nL of compounds were added to the cell plate using Echo555. Incubated for 60 minutes at 37° C. Added 3 μL of IP-1 d2 Reagent working solution and 3 μL of IP-1 Tb Cryptate Antibody working solution to all wells. The plates were incubated for 1 hour at room temperature and read on for fluorescence at 620 nm and 665 nm on an EnVision Multimode Plate Reader (PerkinElmer). The ratio of the acceptor and donor emission signals (665/620) were calculated for each individual well and substituted into the standard curve to obtain the log concentration of IP level. After converting to the antilog base IP-1, the average background control signal was subtracted from each well and values were normalized to the maximal response of 5-HT at 3 μM (100%). % MAX was calculated by taking the average normalized maximal response at the highest concentration tested. Data were analyzed using the four-parameter nonlinear regression curve-fitting function in GraphPad Prism 5 (GraphPad Software, San Diego, CA) to generate potency (EC50) values. Parameter constraint “Top=100” was used in the analysis of 5-HT2B IP-1. Represented plots show normalized IP-1 values versus compound concentrations; the corresponding numerical data are parameter estimates for the concentration-response curve using the 4-parameter nonlinear regression curve-fitting function in GraphPad Prism 10. “Top=100” parameter constraint was not enabled for the represented plot analysis.

Data set [5] is described as follows: Aqueous solubility by sequential dilution in water, microscopic inspection. The conditions noted are these: water, thermodynamic from solid.
Data set [6] deals with male C57BL/6J mice. Nature of the data set: Motor activity / distance traveled measured in parallel with HTR. The class given is in vivo, mouse. The conditions noted are these: i.p.; for motor activity, in words: magnetometer activity.
Data set [7] concerns male C57BL/6J mice. Nature of the data set: Mouse head-twitch response (HTR) assay, magnetometer. The class given is in vivo. As to conditions: for HTR (head twitch response), in words: i.p., doses up to 30 mpk.
A short description of data set [8]: Photoabsorption 290-700 nm, molar extinction coefficient (photoliability). The class given is physicochemical. The conditions noted are these: wavelength of maximal absorption between 290 nm and 700 nm.
Data set [9] has as its target T3, 5-HT2C (h) (Homo sapiens, UniProt P28335).
T3 construct: host or cells: HEK-293 cells
T3 sequence (P28335 33-458): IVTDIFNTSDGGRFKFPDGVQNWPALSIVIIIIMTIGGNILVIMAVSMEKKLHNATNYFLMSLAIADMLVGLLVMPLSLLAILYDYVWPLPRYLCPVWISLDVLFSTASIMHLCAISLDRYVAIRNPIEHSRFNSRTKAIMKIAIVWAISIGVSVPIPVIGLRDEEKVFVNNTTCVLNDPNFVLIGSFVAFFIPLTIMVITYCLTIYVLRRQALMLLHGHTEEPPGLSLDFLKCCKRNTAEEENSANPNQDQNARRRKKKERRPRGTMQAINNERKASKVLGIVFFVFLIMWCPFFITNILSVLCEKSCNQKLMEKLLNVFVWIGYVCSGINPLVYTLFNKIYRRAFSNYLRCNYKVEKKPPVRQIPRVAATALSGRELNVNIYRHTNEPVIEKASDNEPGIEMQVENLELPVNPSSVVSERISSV
Nature of the data set: Radioligand binding 5-HT2C (h) (agonist radioligand), [^125I](±)DOI, HEK-293 cells.

Data set [10] deals with T4, 5-HT2B (h) (Homo sapiens, UniProt P41595).
T4 construct: host or cells: CHO cells
T4 sequence (P41595 whole entry): as the sequence (P41595 whole entry) above
Put plainly: Radioligand binding 5-HT2B (h) (agonist radioligand), [^125I](±)DOI, CHO cells.

Data set [11] has as its target T5, 5-HT2A (h) (Homo sapiens, UniProt P28223).
T5 construct: host or cells: HEK-293 cells
Nature of the data set: Radioligand binding 5-HT2A (h) (agonist radioligand), [^125I](±)DOI, HEK-293 cells. As to conditions: 5-HT2A, Hill coefficient.

Values after ≈ are worked out from the molar mass of the structure shown. “Also recorded” adds a separate entry of the source.

T1 sequence (P28223 whole entry, looked up): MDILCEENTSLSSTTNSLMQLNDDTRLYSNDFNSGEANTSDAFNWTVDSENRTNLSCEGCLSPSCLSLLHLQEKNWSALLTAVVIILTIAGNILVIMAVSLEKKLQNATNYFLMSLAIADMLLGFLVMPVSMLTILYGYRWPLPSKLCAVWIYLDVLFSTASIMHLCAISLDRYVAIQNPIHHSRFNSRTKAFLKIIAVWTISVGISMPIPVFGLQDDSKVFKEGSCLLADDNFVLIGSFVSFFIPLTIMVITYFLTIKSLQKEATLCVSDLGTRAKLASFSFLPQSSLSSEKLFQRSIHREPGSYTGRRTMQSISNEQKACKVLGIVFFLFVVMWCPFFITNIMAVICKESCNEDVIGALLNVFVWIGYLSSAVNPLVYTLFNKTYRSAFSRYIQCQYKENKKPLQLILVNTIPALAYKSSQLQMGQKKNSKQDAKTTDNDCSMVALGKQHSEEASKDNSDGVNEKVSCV
T5 sequence (P28223 whole entry, looked up): as above

For the molecule `COc1cc(CCN)c(OC)cc1Br` [Compound 2C-B, reference compound], the EC50 in [1] is 0.62 nM; in [2], 9.98 nM; in [3], 20.9 nM; in [4], 232 nM. Also, the maximal effect (Emax) came out at 105% in [1] and 92.7% in [2]. Further, the 5-HT2B receptor activation result in [2] is listed as “near maximal activation”.

As to `COc1cc(CC(C)C)c(OC)cc1CCN` [Compound 2C-iBu, reference compound], in data set [1], the EC50 was found to be 21.9 nM and the Emax amounted to 92.6%. Further, in data set [2], the EC50 was found to be 22.3 nM, the Emax is 89.1% and the 5-HT2B receptor activation entry was “near maximal activation”. In [5], this molecule returned a solubility of 31.2 mM (≈ 7400 µg/mL). Further, in data set [6], the “motor activity ID50” value was 2 mpk; the “motor activity, in words” value is “modest but statistically significant effect on motor suppression at the doses of 3 and 10 mpk”. The same molecule gave an ED50 in data set [7] (Mus musculus, ip, non-linear regression) of 0.42 mg/kg. Moreover, the “HTR (head twitch response), in words” value in [7] was “produced clear HTR time-course and inverted U-shape dose-response patterns; also recorded: induced HTR activity”.

As to `COc1cc(CC(C)C)c(CO)cc1CCN` [Compound 2CiBu-5HM, [5-(2-Aminoethyl)-2-isobutyl-4-methoxy-phenyl]methanol], the EC50 in data set [3] stood at 466 nM; in data set [4], 1120 nM. The molecule further registered a solubility in data set [5] of 44.4 mM (≈ 10500 µg/mL). The molecule also yielded an MEC in data set [8] of 340.7 L/mol/cm.

In the case of `COc1cc(C[C@@H](C)N)c(OC)cc1I` [R-DOI, (−)-R-2,5-dimethoxy-4-iodo-amphetamine, reference compound], the “motor activity, in words” value in data set [6] was “increase in motor activity”. In addition, the figures for the Ki in [9] and in data set [10] were 0.4 nM and 1.2 nM, respectively. Moreover, the nH in [9] (5-HT2C, Hill coefficient) is 1.0; in [10] (5-HT2B, Hill coefficient) it was 0.7; in [11], 0.7. Also, the IC50 in data set [10] worked out at 2.3 nM. In addition, the “HTR (head twitch response), in words” value in data set [7] is “induced HTR that gradually increased over time”.
